# Columns and labels:
# Assay type in all cases: in vivo
# [1] = test system: Amaranthus retroflexus; assay: Pre-emergence herbicidal activity, AMARE; details: Application pre-emergence, 1000 g/Ha, evaluated after 13 days, scale 0-5
# Experimental: (§1) Seeds of a variety of test species were sown in standard soil in pots. After cultivation for one day (pre-emergence) under controlled conditions in a glasshouse (at 24/16° C., day/night; 14 hours light; 65% humidity), the plants were sprayed with an aqueous spray solution derived from the formulation of the technical active ingredient in acetone/water (50:50) solution containing 0.5% Tween 20 (polyoxyethelyene sorbitan monolaurate, CAS RN 9005-64-5). The test plants were then grown in a glasshouse under controlled conditions (at 24/16° C., day/night; 14 hours light; 65% humidity) and watered twice daily. After 13 days, the test was evaluated (5=total damage to plant; 0=no damage to plant).
# [2] = test system: Echinochloa crus-galli; assay: Pre-emergence herbicidal activity, ECHCG; details: Application pre-emergence, 1000 g/Ha, evaluated after 13 days, scale 0-5
# Experimental: as §1
# [3] = test system: Abutilon theophrasti; assay: Pre-emergence herbicidal activity, ABUTH; details: Application pre-emergence, 1000 g/Ha, evaluated after 13 days, scale 0-5
# Experimental: as §1
# [4] = test system: Setaria faberi; assay: Pre-emergence herbicidal activity, SETFA; details: Application pre-emergence, 1000 g/Ha, evaluated after 13 days, scale 0-5
# Experimental: as §1
# [5] = test system: Zea mays; assay: Pre-emergence herbicidal activity, ZEAMX; details: Application pre-emergence, 1000 g/Ha, evaluated after 13 days, scale 0-5
# Experimental: as §1
# [6] = test system: Amaranthus retroflexus; assay: Post-emergence herbicidal activity, AMARE; details: Application post-emergence, 1000 g/Ha, evaluated after 13 days, scale 0-5
# Experimental: (§2) Seeds of a variety of test species were sown in standard soil in pots. After 8 days cultivation (post-emergence) under controlled conditions in a glasshouse (at 24/16° C., day/night; 14 hours light; 65% humidity), the plants were sprayed with an aqueous spray solution derived from the formulation of the technical active ingredient in acetone/water (50:50) solution containing 0.5% Tween 20 (polyoxyethelyene sorbitan monolaurate, CAS RN 9005-64-5). The test plants were then grown in a glasshouse under controlled conditions (at 24/16° C., day/night; 14 hours light; 65% humidity) and watered twice daily. After 13 days, the test was evaluated (5=total damage to plant; 0=no damage to plant).
# [7] = test system: Abutilon theophrasti; assay: Post-emergence herbicidal activity, ABUTH; details: Application post-emergence, 1000 g/Ha, evaluated after 13 days, scale 0-5
# Experimental: as §2
# [8] = test system: Setaria faberi; assay: Post-emergence herbicidal activity, SETFA; details: Application post-emergence, 1000 g/Ha, evaluated after 13 days, scale 0-5
# Experimental: as §2
# [9] = test system: Echinochloa crus-galli; assay: Post-emergence herbicidal activity, ECHCG; details: Application post-emergence, 1000 g/Ha, evaluated after 13 days, scale 0-5
# Experimental: as §2
# [10] = test system: Zea mays; assay: Post-emergence herbicidal activity, ZEAMX; details: Application post-emergence, 1000 g/Ha, evaluated after 13 days, scale 0-5
# Experimental: as §2
SMILES,AMARE damage score [1],ECHCG damage score [2],ABUTH damage score [3],SETFA damage score [4],ZEAMX damage score [5],AMARE damage score [6],ABUTH damage score [7],SETFA damage score [8],ECHCG damage score [9],ZEAMX damage score [10]
COCc1cnc(N2C(=O)N(C)CC2O)cc1C(F)(F)F (centres unmarked) [Compound A51],5,5,5,5,3,5,5,5,5,3
CN1CC(O)N(c2cc(C(F)(F)F)c(-c3ccc(Cl)nc3)cn2)C1=O (centres unmarked) [Compound A21],5,5,5,5,3,5,5,5,5,5
CN1CC(O)N(c2cc(C(F)(F)F)c(-c3cncc(Cl)c3)cn2)C1=O (centres unmarked) [Compound A22],5,5,5,5,3,5,5,5,5,5
CN1CC(O)N(c2cc(C(F)(F)C(F)(F)F)ccn2)C1=O (centres unmarked) [Compound A48],5,4,5,5,2,5,5,5,5,3
CN1CC(O)N(c2cc(Cl)c(C(=O)NC(C)(C)C)cn2)C1=O (centres unmarked) [Compound A45],5,5,5,5,3,5,5,5,5,5
C=Cc1cnc(N2C(=O)N(C)CC2O)cc1C(F)(F)F (centres unmarked) [Compound A41],5,4,4,4,2,5,5,5,5,2
CC(=O)Nc1ccccc1-c1cnc(N2C(=O)N(C)CC2O)cc1C(F)(F)F (centres unmarked) [Compound A35],5,2,2,2,1,5,5,4,4,1
COc1ccc(-c2cnc(N3C(=O)N(C)CC3O)cc2C(F)(F)F)c(OC)n1 (centres unmarked) [Compound A25],5,5,5,3,2,5,5,5,5,2
CN1CC(O)N(c2cc(C(F)F)c(Cl)cn2)C1=O (centres unmarked) [Compound A47],4,4,4,4,0,,,,4,
CN1CC(O)N(c2cc(C(F)(F)Cl)ccn2)C1=O (centres unmarked) [Compound A46],5,4,5,5,2,,,,5,

# Reference: patent US20160251332A1, “Herbicidal Compounds” (SYNGENTA PARTICIPATIONS AG, priority 2013, published 2016)
